Data published in patent EP0603240B1, “SAFENING HERBICIDAL PYRAZOLYLSULFONYLUREAS” (priority 1991, dated 1993).

Tests used:
Type in all cases: in vivo
[1] = system: velvetleaf (Abutilon theophrasti); experiment: Example 11, Procedure II: Herbicide No. 1 + metazachlor (No. 14) with antidotes
Method: (§1) Containers were filled and compacted with a fumigated silt loam top soil to a depth of about 1.3 cm from the top of the container. A first container was designated as an untreated control, a second container was designated as a herbicide control, and a third container was designated as a herbicide + antidote test container. Each of the containers was seeded with a crop species. A measured amount of herbicide dispersed or dissolved in acetone was applied to a measured quantity of soil. To this same quantity of soil treated with herbicide, there was added a measured amount of antidote dispersed or dissolved in acetone. The quantity of soil treated with the herbicide and antidote was thoroughly mixed to incorporate the herbicide and antidote in the soil uniformly. The seed bed in the third container of soil was covered with the soil treated with the herbicide and antidote and the container was leveled. For each test series, the seed beds of the first and second containers were likewise covered by soil layers. the cover layer of the first container was not treated with herbicide or antidote.
(§2) The containers were then placed on a bench in a greenhouse and sub-irrigated as required for the duration of the test. […] Plant response is measured in terms of percent injury. Antidote efficacy is indicated as the difference in plant injury by the herbicide(s) without the antidote and with the antidote.
(§3) This procedure is the same as Procedure I, but modified in the manner that after incorporation of the chemicals (herbicide and antidote) the containers with the covered seedbed were treated with an initial overhead irrigation equivalent to 0.6 cm rainfall, then subsequently sub-irrigated as required on greenhouse benches.
(§4) In the series of greenhouse tests described below, for routine screening purposes the herbicide/antidote compositions were tested in crop/weed combinations involving corn as the crop and either or both of the weeds barnyardgrass (Echinochloa crusgalli), a monocotyledonous weed, and velvetleaf (Abutilon theophrasti), a dicotyledonous weed. In the tables below, these weeds are indicated by the symbols "BYG" and "VL", respectively.
(§5) In this example, yet another α-chloroacetanilide co-herbicide, metazachlor (Herbicide No. 14) was combined with Herbicide No. 1 for investigation of the effect of various safeners on that composition. Metazachlor is the active ingredient in the commercial herbicide BUTISAN® S, used here as a 500 g/L formulation.

[2] = system: barnyardgrass (Echinochloa crusgalli); experiment: as above
Method: as §1, §2, §3, §4, §5

corn [3] = experiment: Example 8, Procedure II: Herbicide No. 1 + butachlor (No. 9) with antidotes
Method: as §1, §2, §3
In this test, the efficacy of the same five antidotes used in Examples 6 and 7 was investigated in compositions comprising Herbicide No. 1 and as a co-herbicide, butachlor (Herbicide No. 9), active ingredient in MACHETE® herbicide, a leading commercial rice herbicide. The test procedure used in this example was the same as that in Examples 6 and 7.

[4] = system: velvetleaf (Abutilon theophrasti); experiment: Example 10, Procedure II: Herbicide No. 1 + propachlor (No. 5) with antidotes
Method: as §1, §2, §3, §4
(§6) In this test, the safening effect of various antidotes on the herbicidal combination of Herbicide No. 1 and another α-chloroacetanilide co-herbicide, propachlor, (Herbicide No. 5) was investigated. Propachlor is the active ingredient in the commercial herbicide RAMROD®. Procedure II was also used in this test as in the preceding example.

[5] = system: barnyardgrass (Echinochloa crusgalli); experiment: as above
Method: as §1, §2, §3, §4, §6

[6] = system: velvetleaf (Abutilon theophrasti); experiment: Example 24, Procedure II: Herbicide No. 1 + co-herbicides Nos. 4, 6, 7, 12 with Antidote Nos. 15 and 17-21
Method: as §1, §2, §3
(§7) In other greenhouse tests, using Procedure II described above, the safening efficacy of Antidote Nos. 15 and 17-21 was evaluated against Herbicide No. 1 in corn in the presence of Giant foxtail (Setaria fabergi) and Velvetleaf (Abutilon theophrasti) as representative annual monocotyledonous and dicotyledonous weeds, respectively.
(§8) Test results are shown in Tables 23A and 23B wherein the indicated plant inhibition represents the average of duplicate replications, with observations being made thirteen (13) days after application of the chemicals. Giant foxtail and Velvetleaf are represented by the symbols "GFT" and "VL", respectively. The data in Table 23A show the test results using the antidotes at 2.24 kg/ha, whereas in Table 23B, the antidotal rate was reduced to 0.56 kg/ha.
(§9) The tests described in Example 23 were duplicated, but in this example a variety of co-herbicides were included to ascertain the efficacy of the antidotes against combinations of Herbicide No. 1 and Herbicides Nos. 4, 6, 7 and 12 as co-herbicides. Test results are shown in Table 24, wherein the antidote application rate was 2.24 kg/ha.

[7] = system: Giant foxtail (Setaria fabergi); experiment: as above
Method: as §1, §2, §3, §7, §8, §9

corn [8] = experiment: as above
Method: as §1, §2, §3, §7, §8, §9

[9] = Herbicide No.1 0.56 kg/ha + Herbicide No.14 3.36 kg/ha, antidote rate 2.24 kg/ha
[10] = Herbicide No.1 0.56 kg/ha + Herbicide No.14 3.36 kg/ha, antidote rate 8.96 kg/ha
[11] = Herbicide No.1 1.12 kg/ha + Herbicide No.14 3.36 kg/ha, antidote rate 2.24 kg/ha
[12] = Herbicide No.1 1.12 kg/ha + Herbicide No.14 3.36 kg/ha, antidote rate 8.96 kg/ha
[13] = Herbicide No.1 0.14 kg/ha + Herbicide No.5 4.48 kg/ha, antidote rate 2.24 kg/ha
[14] = Herbicide No.1 0.14 kg/ha + Herbicide No.5 4.48 kg/ha, antidote rate 8.96 kg/ha
[15] = Herbicide No.1 0.56 kg/ha + Herbicide No.5 4.48 kg/ha, antidote rate 2.24 kg/ha
[16] = Herbicide No.1 0.56 kg/ha + Herbicide No.5 4.48 kg/ha, antidote rate 8.96 kg/ha
[17] = Herb. No. 1 0.07 Kg/ha + Co-Herb. No. 4 1.12 Kg/ha + antidote 2.24 Kg/ha
[18] = Herb. No. 1 0.07 Kg/ha + Co-Herb. No. 6 0.14 Kg/ha + antidote 2.24 Kg/ha
[19] = Herb. No. 1 0.07 Kg/ha + Co-Herb. No. 7 0.28 Kg/ha + antidote 2.24 Kg/ha
[20] = Herb. No. 1 0.07 Kg/ha + Co-Herb. No. 12 0.28 Kg/ha + antidote 2.24 Kg/ha
[21] = Herb. No. 1 0.14 Kg/ha + Co-Herb. No. 4 1.12 Kg/ha + antidote 2.24 Kg/ha
[22] = Herb. No. 1 0.14 Kg/ha + Co-Herb. No. 6 0.14 Kg/ha + antidote 2.24 Kg/ha
[23] = Herb. No. 1 0.14 Kg/ha + Co-Herb. No. 7 0.28 Kg/ha + antidote 2.24 Kg/ha
[24] = Herb. No. 1 0.14 Kg/ha + Co-Herb. No. 12 0.28 Kg/ha + antidote 2.24 Kg/ha
[25] = Herb. No. 1 0.28 Kg/ha + Co-Herb. No. 4 1.12 Kg/ha + antidote 2.24 Kg/ha
[26] = Herb. No. 1 0.28 Kg/ha + Co-Herb. No. 6 0.14 Kg/ha + antidote 2.24 Kg/ha
[27] = Herb. No. 1 0.28 Kg/ha + Co-Herb. No. 7 0.28 Kg/ha + antidote 2.24 Kg/ha
[28] = Herb. No. 1 0.28 Kg/ha + Co-Herb. No. 12 0.28 Kg/ha + antidote 2.24 Kg/ha
[29] = Herb. No. 1 0.56 Kg/ha + Co-Herb. No. 4 1.12 Kg/ha + antidote 2.24 Kg/ha
[30] = Herb. No. 1 0.56 Kg/ha + Co-Herb. No. 6 0.14 Kg/ha + antidote 2.24 Kg/ha
[31] = Herb. No. 1 0.56 Kg/ha + Co-Herb. No. 7 0.28 Kg/ha + antidote 2.24 Kg/ha
[32] = Herb. No. 1 0.56 Kg/ha + Co-Herb. No. 12 0.28 Kg/ha + antidote 2.24 Kg/ha

## O=C1OC(=O)c2cccc3cccc1c23 [compound 2]
[1]; [9]
  % Injury VL: 85%
[1]; [10]
  % Injury VL: 90%
[1]; [11]
  % Injury VL: 97%
[1]; [12]
  % Injury VL: 85%
[2]; [9]
  % Injury BYG: 99%
[2]; [10]
  % Injury BYG: 99%
[2]; [11]
  % Injury BYG: 100%
[2]; [12]
  % Injury BYG: 100%
Corn [3]; Herbicide No.1 0.14 + No.9 2.24 kg/ha + antidote 2.24 kg/ha
  % Injury Corn: 15%
Corn [3]; Herbicide No.1 0.14 + No.9 2.24 kg/ha + antidote 8.96 kg/ha
  % Injury Corn: 15%
Corn [3]; Herbicide No.1 0.56 + No.9 2.24 kg/ha + antidote 2.24 kg/ha
  % Injury Corn: 25%
Corn [3]; Herbicide No.1 0.56 + No.9 2.24 kg/ha + antidote 8.96 kg/ha
  % Injury Corn: 20%
[4]; [13]
  % Injury VL: 60%
[4]; [14]
  % Injury VL: 80%
[4]; [15]
  % Injury VL: 75%
[4]; [16]
  % Injury VL: 80%
[5]; [13]
  % Injury BYG: 100%
[5]; [14]
  % Injury BYG: 99%
[5]; [15]
  % Injury BYG: 99%
[5]; [16]
  % Injury BYG: 99%

## CC1COc2ccccc2N1C(=O)C(Cl)Cl (stereo not drawn) [compound 17]
[6]; [17]
  % Inhibition VL: 90%
[6]; [18]
  % Inhibition VL: 90%
[6]; [19]
  % Inhibition VL: 85%
[6]; [20]
  % Inhibition VL: 90%
[6]; [21]
  % Inhibition VL: 90%
[6]; [22]
  % Inhibition VL: 90%
[6]; [23]
  % Inhibition VL: 95%
[6]; [24]
  % Inhibition VL: 98%
[6]; [25]
  % Inhibition VL: 90%
[6]; [26]
  % Inhibition VL: 95%
[6]; [27]
  % Inhibition VL: 98%
[6]; [28]
  % Inhibition VL: 98%
[6]; [29]
  % Inhibition VL: 95%
[6]; [30]
  % Inhibition VL: 98%
[6]; [31]
  % Inhibition VL: 98%
[6]; [32]
  % Inhibition VL: 95%
[7]; [17]
  % Inhibition GFT: 55%
[7]; [18]
  % Inhibition GFT: 100%
[7]; [19]
  % Inhibition GFT: 100%
[7]; [20]
  % Inhibition GFT: 99%
[7]; [21]
  % Inhibition GFT: 50%
[7]; [22]
  % Inhibition GFT: 100%
[7]; [23]
  % Inhibition GFT: 100%
[7]; [24]
  % Inhibition GFT: 99%
[7]; [25]
  % Inhibition GFT: 45%
[7]; [26]
  % Inhibition GFT: 98%
[7]; [27]
  % Inhibition GFT: 100%
[7]; [28]
  % Inhibition GFT: 98%
[7]; [29]
  % Inhibition GFT: 70%
[7]; [30]
  % Inhibition GFT: 99%
[7]; [31]
  % Inhibition GFT: 99%
[7]; [32]
  % Inhibition GFT: 100%
Corn [8]; [17]
  % Inhibition Corn: 0%
Corn [8]; [18]
  % Inhibition Corn: 5%
Corn [8]; [19]
  % Inhibition Corn: 0%
Corn [8]; [20]
  % Inhibition Corn: 5%
Corn [8]; [21]
  % Inhibition Corn: 0%
Corn [8]; [22]
  % Inhibition Corn: 0%
Corn [8]; [23]
  % Inhibition Corn: 0%
Corn [8]; [24]
  % Inhibition Corn: 5%
Corn [8]; [25]
  % Inhibition Corn: 5%
Corn [8]; [26]
  % Inhibition Corn: 15%
Corn [8]; [27]
  % Inhibition Corn: 5%
Corn [8]; [28]
  % Inhibition Corn: 5%
Corn [8]; [29]
  % Inhibition Corn: 20%
Corn [8]; [30]
  % Inhibition Corn: 15%
Corn [8]; [31]
  % Inhibition Corn: 15%
Corn [8]; [32]
  % Inhibition Corn: 20%

## CC1(C)OC(c2ccco2)CN1C(=O)C(Cl)Cl (stereo not drawn) [Antidote No. 15, Oxazolidine, 3-(dichloroacetyl)-5-(2-furanyl)-2,2-dimethyl]
Corn [3]; Herbicide Nos. 1 and 9, Table 8
  safening of corn, assessment in words: best safening effect across all four treatments
